Source: article PMC6749294, “Comparison of the Utility of RP-TLC Technique and Different Computational Methods to Assess the Lipophilicity of Selected Antiparasitic, Antihypertensive, and Anti-inflammatory Drugs” (Molecules, 2019)
Read-outs that look alike come from different tables or passages of the source. One block for each compound: values may come before it.

Columns and labels:
[1] = RP-TLC lipophilicity on RP-18F254 plates (Soczewiński-Wachtmeister's and Ościk's equations); format: physicochemical; details: for RMWO(m) / RMWO(a): Ościk's equation; for RMWO(m) / RMWS(m) / φ0(m): methanol-water mobile phase; for RMWO(m) / RMWS(a) / RMWS(m) / RMWO(a): silica gel RP-18F254; for RMWS(a) / RMWS(m): Soczewiński-Wachtmeister's equation; for RMWS(a) / φ0(a) / RMWO(a): acetone-water mobile phase; for φ0(a) / φ0(m): φ0 = RMWS/S (Equation 6)
Experimental: The chromatographic analysis was carried on RP-18F254 plates (Art.1.05559, E. Merck, Darmstadt, Germany). The solutions of the investigated compounds were spotted separately onto chromatographic plates using precise micropipettes in a quantity of 5 µL each.
The chromatograms were developed using the mixtures of methanol-water and acetone-water in different volume compositions, as follows:
For antiparasitic drugs: • - the content of methanol was gradually varied by 10% (v/v) from 20–100 (%, v/v), • - the content of acetone was gradually varied by 10% (v/v) from 10–100 (%, v/v).
In the case of antihypertensive drugs, the content of methanol and acetone was gradually varied by 5% (v/v) from 60–100 (%, v/v).
For non-steroidal anti-inflammatory drugs: • - the content of methanol was gradually varied by 5% (v/v) from 60–100 (%, v/v), • - the content of acetone was gradually varied by10% (v/v) from 20–100 (%, v/v).
Next, the chamber was saturated with solvent vapor for 20 min. The chromatograms were developed at room temperature, e.g., 22 ± 1 °C. The development distance was 75 mm. The plates were dried at room temperature, e.g., 22 ± 1 °C. Each chromatogram was done in triplicate.
Densitometric scanning was done using a TLC Scanner 3 with WinCATS 1.4.2 software manufactured by Camag (Muttenz, Switzerland) in the reflectance/absorbance mode.
Densitometric scanning was performed at a respective absorption maximum for the analyzed drugs. The slit dimensions were 10.00 × 0.40 mm, Macro; the optimized optical system was light; the scanning speed was 20 mm/s; the data resolution was 100 μm/step; the measurement type was remission; the measurement mode was absorption; and the optical filter was second order. Each track was scanned three times, and a baseline correction (lowest slope) was used.
In order to determine the lipophilicity parameter based on Soczewiński-Wachtmeister′s procedure, the RF values obtained under the applied chromatographic conditions were converted into RM values according to the expression:(4) RM=log1/RF−1 The linear relationship between RM and the volume content of methanol and acetone in the mobile phase (φ) permits an extrapolation of the calculated RM values to the zero concentration of methanol and acetone in accordance with Soczewiński-Wachtmeister′s Equation (5). […] (5) RM=RMWS−Sφ where: RM is the RM value of the studied compound, RMWS is the RM value extrapolated to zero concentration of methanol and acetone (organic modifier) in the used mobile phase, i.e., methanol-water and acetone-water, respectively, S is the slope of the regression plot (see Supplementary Materials), and φ is the volume fraction of methanol and acetone in the mobile phase. In addition to this, on the basis of the said plot, i.e., Soczewiński-Wachtmeister′s equation, another chromatographic descriptor (φ0) has been calculated according to the following formula (Equation (6)): (6) φ0 = RMWS/S where: RMWS is the chromatographic parameter obtained by using Soczewiński-Wachtmeister’s equation in accordance with Equation (5), and S is the regression slope.
The measurable lipophilicity value expressed as RMWO was determined according to Ościk’s equation [29, 30, 32]:(7) Gxorg=xorg1−xorg/RM−xorgRMorg−1−xorgRMWO=axorg+b where: RM, RMorg, and RMWO are the solute retention factors in the mixed mobile phase, pure organic solvent, and water, respectively; xorg is the molar fraction of the organic solvent in the mobile phase; a and b are constants in the linear correlation between G(xorg) and xorg in the used mobile phase.

[2] = Experimental n-octanol-water partition coefficient (logPexp) from literature and databases; format: physicochemical; details: average of the differing literature logPexp values (± spread)
Excerpt: The next stage of this paper was a comparison of all obtained RMWS and RMWO parameters calculated using […] equations with theoretical and experimental logP values obtained in an n-octanol-water system.

[3] = n-octanol-water, cited from earlier work
[4] = parameters: method as in PMID 12972078; details: RP-HPLC, cited from earlier work; for log kwODS: ODS column μBondapak C18; for log kw IAM: immobilized artificial membrane (IAM.PC.MG) column
[5] = cited from earlier work; for Rm0: RP-18F254 plates, acetonitrile-water; for logP: calculated from regression curve Rm0 = f(logP)
[6] = parameters: method as in PMID 9809446; details: methanol-water, cited from earlier work
[7] = Prediction of logPexp from φ0(a) with Equation (3); format: physicochemical; details: chromatography with acetone-water mobile phase; calculated from φ0(a) with Equation (3); read-out: predicted logPexp
Excerpt: The continuation of our lipophilicity study of fifteen biocompounds belonging to the three groups of drugs and the determination of another lipophilicity descriptor, namely φ0, in accordance with Equation (6), allowed us to obtain the two new lipophilicity parameters φ0(a) and φ0(m) for a proper used mobile phase, i.e., acetone-water (a) and methanol-water (m), respectively. What is important is that the calculation of this parameter was possible because a satisfactory linear relationship between both, i.e., the intercept and slope (RMWS and S), in each obtained Soczewiński-Wachtmeister’s equation was achieved (r > 0.98). In order to estimate the utility of these parameters for the prediction of the theoretical as well as experimental parameter of the lipophilicity of a large group of investigated compounds, a correlation matrix between all previously described (thus chromatographic) parameters, as well as the computed and experimental partition coefficient, was done. The results of the correlation analysis indicate that among all φ0 values the best is the one obtained for acetone-water, which is to say φ0(a). […]
This fact confirms the potential utility of the additionally calculated chromatographic parameter φ0(a) to determine the partition coefficient of all examined compounds. It can be very useful in the case of the lack of this value, like for example for the experimental logP of nilvadipine, lacidipine and carprofen. A test was performed on Equation (3) to determine the values of logPexp for the three abovementioned compounds. The results of the predicted logPexp were: 3.65 for nilvadipine, 3.96 for lacidipine and 3.54 for carprofen, respectively. It can be observed that the newly obtained logPexp values are in good agreement with the other previously described theoretical logP of these compounds. They are placed in the similar range of logP values.

[8] = cited from earlier work
[9] = parameters: method as in doi:10.1016/S0021-9673(01)88013-4; details: RP-HPLC; cited from earlier work
[10] = cited from earlier work; remark: listed apart in the source
[11] = RP-18WF254 plates, Soczewiński-Wachtmeister's equation

SMILES: CCOC(=O)C1=C(C)NC(C)=C(C(=O)OCC)C1c1ccccc1/C=C/C(=O)OC(C)(C)C [Lacidipine, lacidipine]
RMWO(a) [1]: 6.63 | RMWO(m) [1]: 6.89 | RMWS(a) [1]: 4.51 | RMWS(m) [1]: 5.01 | φ0(a) [1]: 0.793 | φ0(m) [1]: 0.937 | chromatographic logP [7]: 3.96

SMILES: CCS(=O)(=O)CCn1c([N+](=O)[O-])cnc1C [Tinidazole, tinidazole]
RMWO(a) [1]: 1.11 | RMWO(m) [1]: 1.69 | RMWS(a) [1]: 0.89 | RMWS(m) [1]: 1.17 | φ0(a) [1]: 0.463 | φ0(m) [1]: 0.612 | logP [2]: 0.18

SMILES: Cc1ncc([N+](=O)[O-])n1CC(O)CCl (stereo not shown) [Ornidazole, ornidazole]
RMWO(a) [1]: 1.42 | RMWO(m) [1]: 1.92 | RMWS(a) [1]: 1.22 | RMWS(m) [1]: 1.46 | φ0(a) [1]: 0.565 | φ0(m) [1]: 0.676 | logP [2]: 0.41

SMILES: Cc1ncc([N+](=O)[O-])n1CC(C)O (stereo not shown) [Secnidazole, secnidazole]
RMWO(a) [1]: 1.21 | RMWO(m) [1]: 1.72 | RMWS(a) [1]: 0.95 | RMWS(m) [1]: 1.26 | logPexp ([3]; ref 33): 0.22 [33]

SMILES: Cc1ncc([N+](=O)[O-])n1CCO [Metronidazole, metronidazole]
RMWO(a) [1]: 0.94 | RMWO(m) [1]: 1.21 | RMWS(a) [1]: 0.65 | RMWS(m) [1]: 0.91 | φ0(a) [1]: 0.398 | φ0(m) [1]: 0.564 | logP [2]: 0.1 | logPexp ([3]; ref 34): –0.22 | logPexp ([3]; ref 35): –0.10 | logPexp ([3]; ref 36): –0.02 [36] | logPexp ([3]; ref 37): 0.75 [37] | RMW ([8]; RP-TLC, Soczewiński-Wachtmeister's equation): 0.08 | RMW(paraffin) ([8]; stationary phase liquid paraffin): 0.60 | RMW(squalene) ([8]; stationary phase squalene): 0.53 | logk' [9]: –0.067 | hydrophilic-hydrophobic properties ([10]; according to Hoffmann et al. and Jokipii et al.): lipophilic compound that penetrates well into most tissues | hydrophilic-hydrophobic properties ([10]; reported by Biagi): hydrophilic | hydrophilic-hydrophobic properties ([10]; reported by Másson et al.): very hydrophilic

SMILES: CCCCC1C(=O)N(c2ccccc2)N(c2ccccc2)C1=O [Phenylbutazone, phenylbutazone]
RMWO(m) [1]: 3.54 | RMWS(a) [1]: 1.72 | RMWS(m) [1]: 1.84 | RMO ([6]; Nano-Sil CNF254 plates): 1.50 | RMO [6, 11]: 2.71

The next lines start with results.

RMWO(m) [1]: 2.26 | RMWS(a) [1]: 1.87 | RMWS(m) [1]: 1.98 | φ0(a) [1]: 0.930 | φ0(m) [1]: 0.771 | logP [2]: 4
SMILES: CC(C(=O)O)c1ccc(-c2ccccc2)c(F)c1 (stereo not shown) [Flurbiprofen, flurbiprofen]
logPexp ([3]; ref 36): 4.16 [36] | logPexp ([3]; ref 42): 3.84 [42] | log kwODS [4]: 2.91 | log kw IAM [4]: 1.58 | Rm0 [5]: 2.5076 | logP [5]: 3.82

RMWO(m) [1]: 4.08 | RMWS(a) [1]: 2.57 | RMWS(m) [1]: 2.19 | φ0(a) [1]: 0.747 | φ0(m) [1]: 0.790
SMILES: COc1ccc2c(c1)c(CC(=O)O)c(C)n2C(=O)c1ccc(Cl)cc1 [Indomethacin, indomethacin]
logPexp ([3]; ref 36): 4.27 [36] | logPexp ([3]; ref 42): 4.10 [42] | RMO ([6]; Nano-Sil CNF254 plates): 0.52 | RMO [6, 11]: 2.62

RMWO(m) [1]: 3.76 | RMWS(a) [1]: 1.26 | RMWS(m) [1]: 1.47 | φ0(a) [1]: 0.640 | φ0(m) [1]: 0.687
SMILES: CC(C(=O)O)c1cccc(C(=O)c2ccccc2)c1 (stereo not shown) [Ketoprofen, ketoprofen]
RMO ([6]; Nano-Sil CNF254 plates): 2.31 | RMO [6, 11]: 1.74 | log kwODS [4]: 2.83 | log kw IAM [4]: 1.02 | Rm0 [5]: 1.8491 | logP [5]: 2.66

RMWO(m) [1]: 3.74 | RMWS(a) [1]: 2.61 | RMWS(m) [1]: 2.49 | φ0(a) [1]: 0.789 | φ0(m) [1]: 0.865
SMILES: Cc1cccc(Nc2ccccc2C(=O)O)c1C [Mefenamic Acid, mefenamic acid]
logPexp ([3]; ref 39): 5.12 [39]

RMWO(a) [1]: 5.67 | RMWO(m) [1]: 5.08 | RMWS(a) [1]: 3.54 | RMWS(m) [1]: 3.13 | φ0(a) [1]: 0.751 | φ0(m) [1]: 0.837
SMILES: COC(=O)C1=C(C)NC(C)=C(C(=O)OC(C)C)C1c1cccc2nonc12 (stereo not shown) [Isradipine, isradipine]
logPexp ([3]; ref 6): 4.28 [6]

RMWO(a) [1]: 6.28 | RMWO(m) [1]: 5.57 | RMWS(a) [1]: 4.07 | RMWS(m) [1]: 3.66 | φ0(a) [1]: 0.764 | φ0(m) [1]: 0.886 | chromatographic logP [7]: 3.65
SMILES: COC(=O)C1=C(C#N)NC(C)=C(C(=O)OC(C)C)C1c1cccc([N+](=O)[O-])c1 (stereo not shown) [Nilvadipine, nilvadipine]

RMWO(a) [1]: 5.57 | RMWO(m) [1]: 6.57 | RMWS(a) [1]: 3.75 | RMWS(m) [1]: 4.27 | φ0(a) [1]: 0.775 | φ0(m) [1]: 0.929 | logP [2]: 4.16
SMILES: CCOC(=O)C1=C(C)NC(C)=C(C(=O)OC)C1c1cccc(Cl)c1Cl (stereo not shown) [Felodipine, felodipine]
logPexp ([3]; ref 6): 3.86 [6] | logPexp ([3]; ref 41): 4.46 [41]

RMWO(m) [1]: 2.52 | RMWS(a) [1]: 3.08 | RMWS(m) [1]: 3.12 | φ0(a) [1]: 0.787 | φ0(m) [1]: 0.903
SMILES: COc1ccc2cc(CCC(C)=O)ccc2c1 [Nabumetone, nabumetone]
logPexp ([3]; ref 43): 3.08 [43]

RMWO(m) [1]: 2.77 | RMWS(a) [1]: 2.56 | RMWS(m) [1]: 2.34 | φ0(a) [1]: 0.754 | φ0(m) [1]: 0.820 | chromatographic logP [7]: 3.54
SMILES: CC(C(=O)O)c1ccc2c(c1)[nH]c1ccc(Cl)cc12 (stereo not shown) [Carprofen, carprofen]
log kwODS [4]: 3.85 | log kw IAM [4]: 1.81
